# Laboratory results taken from patent US6096707A, “Integrin binding peptide and use thereof” (BioTie Therapies Ltd., priority 1997, dated 2000).
# Positions of bridges follow the written chain, without caps; N, C: chain ends. Residues, ends and D or L forms follow the SMILES beside them.
# Molecular target: T1, human recombinant integrin α2I domain (rα2I) (Homo sapiens, UniProt P17301)
# T1 construct: GST (glutathione S-transferase, pGEX2T) (N, cleaved yes); made in house; host or cells: E. coli BL21 (pJKα2I, pGEX2T backbone)
# T1 sequence (P17301 153-368): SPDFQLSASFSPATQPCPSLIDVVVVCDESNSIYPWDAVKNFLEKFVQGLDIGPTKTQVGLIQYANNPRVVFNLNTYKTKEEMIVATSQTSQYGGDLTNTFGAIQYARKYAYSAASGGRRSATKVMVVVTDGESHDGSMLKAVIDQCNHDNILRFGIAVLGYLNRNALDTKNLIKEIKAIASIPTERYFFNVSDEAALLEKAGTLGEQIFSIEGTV
# Format: binding
# Protocol: A 96-well immunoplate (Maxisorp, Nunc) was coated by exposing the surface of its well to 0.1 ml of PBS containing 5 μg/cm^2 of the plate surface, type I collagen (bovine dermal, Cellon), type IV collagen (Sigma), laminin-1 (purified from basement membranes of the Engelbreth-Holm-Swarm mouse tumor, Collaborative Research), fibronectin (human plasma fibronectin, Boehringer Mannheim) or 3.3 μg/ml echovirus-1 or echovirus-7 for 12 h at +4° C. Alternatively peptides and B. jararaca venom (Sigma) were coated at various concentrations on 96-well amine binding plates (Costar) according to the manufacturer's instructions.
# Residual protein absorption sites on all wells were blocked with 0.1% heat inactivated bovine serum albumin in PBS for 1 h at +37° C. Echoviruses 1 (Farouk strain) and 7 (Wallace) were obtained from the ATCC. The purified viruses were diluted in PBS containing 0.5 mM MgCl2 and stored at -70° C. until used. Europium labeled rα2I was added at a concentration of 500 ng/ml in PBS, 2 mM MgCl2, 1 mg/ml BSA to the coated wells and incubated for 3 h at +37° C. Wells were then washed three times with PBS, 2mM MgCl2. 0.1 ml Delfia enhancement solution (Wallac) was added to each well and europium signal was measured with fluorometry (Model 1232 Delfia, Wallac). […]
smiles,measurement,value
"C[C@@H]1NC(=O)[C@H](CC(N)=O)NC(=O)[C@H](CC(=O)O)NC(=O)[C@H](Cc2c[nH]cn2)NC(=O)[C@H](CCCCN)NC(=O)[C@H](CCCCN)NC(=O)[C@H](CCCNC(=N)N)NC(=O)[C@H]([C@@H](C)O)NC(=O)[C@@H](N)CSSC[C@@H](C(=O)O)NC(=O)[C@H](CCC(N)=O)NC1=O [229ox, CTRKKHDNAQC] (H-CTRKKHDNAQC-OH; disulfide 1-11)",inhibition of rα2I binding to B. jararaca venom by peptide,about 50%
